Read-outs that look alike come from different tables or passages of the source.
Experiments:
Assay type in all cases: biochemical
JAK1 = JAK1 (Homo sapiens (Human), UniProt P23458); assay: JAK Caliper Enzyme Assay at 1 mM ATP, JAK1
How it was run: (§1)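 IC50 (nM) derived from percent conversion of fluorescently labelled peptide, measured by Caliper LabChip mobility-shift separation after EDTA stop. Each JAK family kinase domain (human, recombinant) run at 1 mM ATP and room temperature, conditions set to 20-30% product; DMSO wells define uninhibited baseline.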

JAK3 = JAK3 (Homo sapiens (Human), UniProt P52333); assay: JAK Caliper Enzyme Assay at 1 mM ATP, JAK3
JAK3, sequence (P52333 822-1111): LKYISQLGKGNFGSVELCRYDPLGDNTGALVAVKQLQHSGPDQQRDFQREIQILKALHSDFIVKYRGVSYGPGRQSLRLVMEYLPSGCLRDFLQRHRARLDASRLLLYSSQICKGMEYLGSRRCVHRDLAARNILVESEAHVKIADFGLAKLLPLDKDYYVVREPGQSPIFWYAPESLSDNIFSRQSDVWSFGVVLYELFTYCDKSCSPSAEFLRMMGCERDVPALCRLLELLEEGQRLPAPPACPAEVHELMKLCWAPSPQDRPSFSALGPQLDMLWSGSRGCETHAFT
How it was run: as §1

TYK2 = TYK2 (Homo sapiens (Human), UniProt P29597); assay: JAK Caliper Enzyme Assay at 1 mM ATP, TYK2
TYK2, sequence (P29597 897-1176): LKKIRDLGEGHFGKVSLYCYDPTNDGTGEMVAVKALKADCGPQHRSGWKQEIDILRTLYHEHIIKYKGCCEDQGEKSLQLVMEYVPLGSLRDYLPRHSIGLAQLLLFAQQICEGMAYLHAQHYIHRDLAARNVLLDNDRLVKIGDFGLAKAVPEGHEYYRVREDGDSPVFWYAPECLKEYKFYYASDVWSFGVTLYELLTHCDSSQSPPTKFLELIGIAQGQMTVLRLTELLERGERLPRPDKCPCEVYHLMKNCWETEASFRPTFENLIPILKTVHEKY
How it was run: (§2)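 First, compound was incubated at room temperature with recombinant human kinase domain, a synthetic peptide and 1 mM ATP until 20–30% of peptide was phosphorylated. Next, EDTA stopped the reaction. Finally, electrophoretic separation quantified product, and percent effect relative to controls was plotted against concentration.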

JAK2 = JAK2 (Homo sapiens (Human), UniProt O60674); assay: JAK Caliper Enzyme Assay at 1 mM ATP, JAK2
JAK2, sequence (O60674 849-1124): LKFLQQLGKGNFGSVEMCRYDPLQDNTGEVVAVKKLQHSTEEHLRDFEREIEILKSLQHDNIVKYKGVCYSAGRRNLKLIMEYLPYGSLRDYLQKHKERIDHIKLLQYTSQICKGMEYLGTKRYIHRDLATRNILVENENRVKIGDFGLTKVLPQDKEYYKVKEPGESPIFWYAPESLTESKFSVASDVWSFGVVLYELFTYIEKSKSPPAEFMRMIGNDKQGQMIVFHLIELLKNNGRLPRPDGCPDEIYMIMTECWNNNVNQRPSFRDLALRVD
How it was run: as §2

JAK1, sequence (P23458 875-1153): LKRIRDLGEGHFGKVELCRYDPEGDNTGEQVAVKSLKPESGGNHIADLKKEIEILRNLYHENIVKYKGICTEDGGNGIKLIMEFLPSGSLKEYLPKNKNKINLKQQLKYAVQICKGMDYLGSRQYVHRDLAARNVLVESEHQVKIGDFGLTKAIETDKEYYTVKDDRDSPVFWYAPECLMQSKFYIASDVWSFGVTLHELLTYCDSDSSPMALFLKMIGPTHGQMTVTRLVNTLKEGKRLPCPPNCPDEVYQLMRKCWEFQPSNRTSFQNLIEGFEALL

Structure (SMILES) | IC50 (JAK1) [nM] | IC50 (JAK3) [nM] | IC50 (TYK2) [nM] | IC50 (JAK2) [nM] | IC50 (JAK1; JAK Caliper enzyme assay) [nM] | IC50 (JAK3; JAK Caliper enzyme assay) [nM] | IC50 (TYK2; JAK Caliper enzyme assay) [nM] | IC50 (JAK2; JAK Caliper enzyme assay) [nM]
CS(=O)(=O)N1CC(CC#N)(n2ccc(-c3nc(-c4cnn(C5COC5)c4)cc4ncccc34)n2)C1 [Example 121, [1-(methylsulfonyl)-3-(3-{7-[1-(oxetan-3-yl)-1H-pyrazol-4-yl]-1,6-naphthyridin-5-yl}-1H-pyrazol-1-yl)azetidin-3-yl]acetonitrile] | 1750 | 9590 | 20 | 101 |  |  |  | 
Cn1cc(-c2cc3ncccc3c(-c3ccn([C@]4(CC#N)C[C@H](C#N)C4)n3)n2)c(N)n1 [Example 140, cis-3-{3-[7-(3-amino-1-methyl-1H-pyrazol-4-yl)-1,6-naphthyridin-5-yl]-1H-pyrazol-1-yl}-3-(cyanomethyl)cyclobutanecarbonitrile] | 48 | 474 | 8 | 10 |  |  |  | 
Cn1cc(-c2cc3ncccc3c(-c3cnn(C4(CC#N)CN(CC(F)(F)F)C4)c3)n2)cn1 [Example 4, [3-{4-[7-(1-methyl-1H-pyrazol-4-yl)-1,6-naphthyridin-5-yl]-1H-pyrazol-1-yl}-1-(2,2,2-trifluoroethyl)azetidin-3-yl]acetonitrile] | 97 | 5170 | 17 | 26 |  |  |  | 
CS(=O)(=O)N1CC(CC#N)(n2ccc(-c3nc(-c4cnc5nccn5c4)cc4ncccc34)n2)C1 [Example 165, [3-{3-[7-(imidazo[1,2-a]pyrimidin-6-yl)-1,6-naphthyridin-5-yl]-1H-pyrazol-1-yl}-1-(methylsulfonyl)azetidin-3-yl]acetonitrile] | > 10000 | > 10000 | 1390 | 9440 |  |  |  | 
CNc1cc(-c2cc3ncccc3c(-c3ccn([C@]4(CC#N)C[C@H](C#N)C4)n3)n2)nn1C [Example 69, cis-3-(cyanomethyl)-3-(3-{7-[1-methyl-5-(methylamino)-1H-pyrazol-3-yl]-,6-naphthyridin-5-yl}-1H-pyrazol-1-yl)cyclobutanecarbonitrile] | 3400 | > 10000 | 158 | 556 |  |  |  | 
CS(=O)(=O)N1CC(CC#N)(n2ccc(-c3nc(-c4ccc(=O)[nH]c4)cc4ncccc34)n2)C1 [Example 245, [1-(methylsulfonyl)-3-{3-[7-(6-oxo-1,6-dihydropyridin-3-yl)-1,6-naphthyridin-5-yl]-1H-pyrazol-1-yl}azetidin-3-yl]acetonitrile] | 220 | > 10000 | 11 | 131 |  |  |  | 
N#CC[C@]1(n2cc(-c3cc(-c4cn[nH]c4N)cc4ncccc34)cn2)C[C@H](C#N)C1 [Example 290, trans-3-{4-[7-(5-amino-1H-pyrazol-4-yl)quinolin-5-yl]-1H-pyrazol-1-yl}-3-(cyanomethyl)cyclobutanecarbonitrile] | 2960 | > 10000 | 236 | 1750 |  |  |  | 
N#CCC1(n2ccc(-c3nc(-c4ccc(O)c(C(N)=O)n4)cc4ncccc34)n2)CC(C#N)C1 (stereo not drawn) [Example 226, 6-(5-{1-[trans-3-cyano-1-(cyanomethyl)cyclobutyl]-1H-pyrazol-3-yl}-1,6-naphthyridin-7-yl)-3-hydroxypyridine-2-carboxamide] | 3300 | > 10000 | 112 | 929 |  |  |  | 
N#CCC1(n2ccc(-c3nc(-c4cnn(C5CNC5)c4)cc4ncccc34)n2)CN(CC(F)(F)F)C1 [Example 115, [3-(3-{7-[1-(azetidin-3-yl)-1H-pyrazol-4-yl]-1,6-naphthyridin-5-yl}-1H-pyrazol-1-yl)-1-(2,2,2-trifluoroethyl)azetidin-3-yl]acetonitrile] | 7060 | > 10000 | 120 | 327 |  |  |  | 
N#CCC1(n2ccc(-c3nc(-c4cncnc4)cc4ncccc34)n2)CN(CC(F)(F)F)C1 [Example 234, [3-{3-[7-(pyrimidin-5-yl)-1,6-naphthyridin-5-yl]-1H-pyrazol-1-yl}-1-(2,2,2-trifluoroethyl)azetidin-3-yl]acetonitrile] | > 10000 | > 10000 | 2660 | > 10000 |  |  |  | 
N#CC[C@]1(n2ncc(-c3cc(-c4ccc(C(=O)O)cc4)cc4ncccc34)n2)C[C@H](C#N)C1 [Example 435, 4-(5-{2-[cis-3-cyano-1-(cyanomethyl)cyclobutyl]-2H-1,2,3-triazol-4-yl}quinolin-7-yl)benzoic acid] |  |  |  |  | 208 | > 10000 | 17 | 179

Other lines, results leading:

IC50 (JAK1) [nM] | IC50 (JAK3) [nM] | IC50 (TYK2) [nM] | IC50 (JAK2) [nM] | IC50 (JAK1; JAK Caliper enzyme assay) [nM] | IC50 (JAK3; JAK Caliper enzyme assay) [nM] | IC50 (TYK2; JAK Caliper enzyme assay) [nM] | IC50 (JAK2; JAK Caliper enzyme assay) [nM] | Structure (SMILES)
1150 | > 10000 | 32 | 390 |  |  |  |  | CS(=O)(=O)N1CC(CC#N)(n2ncc(-c3cc(-c4cn[nH]c4)cc4ncccc34)n2)C1 [Example 314, [1-(methylsulfonyl)-3-{4-[7-(1H-pyrazol-4-yl)quinolin-5-yl]-2H-1,2,3-triazol-2-yl}azetidin-3-yl]acetonitrile]
 |  |  |  | > 10000 | > 10000 | 257 | 1690 | N#CC[C@]1(n2ncc(-c3cc(-c4cc[nH]c(=O)c4)cc4ncccc34)n2)C[C@H](C#N)C1 [Example 411, trans-3-(cyanomethyl)-3-{4-[7-(2-oxo-1,2-dihydropyridin-4-yl)quinolin-5-yl]-2H-1,2,3-triazol-2-yl}cyclobutanecarbonitrile]
 |  |  |  | 2610 | > 10000 | 53 | 982 | CS(=O)(=O)N1CC(CC#N)(n2ncc(-c3cc(-c4ccc(=O)[nH]c4)cc4ncccc34)n2)C1 [Example 409, [1-(methylsulfonyl)-3-{4-[7-(6-oxo-1,6-dihydropyridin-3-yl)quinolin-5-yl]-2H-1,2,3-triazol-2-yl}azetidin-3-yl]acetonitrile]
> 10000 | > 10000 | 725 | > 10000 |  |  |  |  | Cn1nccc1-c1cc(-c2cnn(C3(CC#N)CN(S(C)(=O)=O)C3)n2)c2cccnc2c1 [Example 310, [3-{4-[7-(1-methyl-1H-pyrazol-5-yl)quinolin-5-yl]-2H-1,2,3-triazol-2-yl}-1-(methylsulfonyl)azetidin-3-yl]acetonitrile]
255 | 9160 | 14 | 174 |  |  |  |  | N#CCC1(n2ncc(-c3cc(-c4cc(N)[nH]n4)cc4ncccc34)n2)CC(C#N)C1 (stereo not drawn) [Example 306, trans-3-{4-[7-(5-amino-1H-pyrazol-3-yl)quinolin-5-yl]-2H-1,2,3-triazol-2-yl}-3-(cyanomethyl)cyclobutanecarbonitrile]
 |  |  |  | > 10000 | > 10000 | 368 | 6500 | N#CC[C@]1(n2ncc(-c3cc(-c4cccc5c4NC(=O)C5)cc4ncccc34)n2)C[C@@H](C#N)C1 [Example 449, cis-3-(cyanomethyl)-3-{4-[7-(2-oxo-2,3-dihydro-1H-indol-7-yl)quinolin-5-yl]-2H-1,2,3-triazol-2-yl}cyclobutanecarbonitrile]
 |  |  |  | 600 | 5970 | 21 | 80 | CS(=O)(=O)Nc1cccc(-c2cc(-c3cnn(C4(CC#N)CC(C#N)C4)n3)c3cccnc3c2)n1 (stereo not drawn) [Example 372, N-[6-(5-{2-[cis-3-cyano-1-(cyanomethyl)cyclobutyl]-2H-1,2,3-triazol-4-yl}quinolin-7-yl)pyridin-2-yl]methanesulfonamide]
 |  |  |  | 9390 | > 10000 | 194 | 811 | N#CC[C@]1(n2ncc(-c3cc(-c4cc5c(cn4)CCN5)cc4ncccc34)n2)C[C@@H](C#N)C1 [Example 380, cis-3-(cyanomethyl)-3-{4-[7-(2,3-dihydro-1H-pyrrolo[3,2-c]pyridin-6-yl)quinolin-5-yl]-2H-1,2,3-triazol-2-yl}cyclobutanecarbonitrile]
3510 | > 10000 | 55 | 281 |  |  |  |  | CS(=O)(=O)c1ccc(-c2cc(-c3cnn([C@]4(CC#N)C[C@@H](C#N)C4)n3)c3cccnc3c2)nc1 [Example 369, trans-3-(cyanomethyl)-3-(4-{7-[5-(methylsulfonyl)pyridin-2-yl]quinolin-5-yl}-2H-1,2,3-triazol-2-yl)cyclobutanecarbonitrile]
 |  |  |  | > 10000 | > 10000 | 2140 | > 10000 | CO[C@H]1C[C@@](CC#N)(n2cc(-c3cc(-c4c[nH]nc4CO)cc4nccn34)cn2)C1 [Example 463, [cis-1-(4-{7-[3-(hydroxymethyl)-1H-pyrazol-4-yl]imidazo[1,2-a]pyridin-5-yl}-1H-pyrazol-1-yl)-3-methoxycyclobutyl]acetonitrile]
653 | > 10000 | 36 | 71 |  |  |  |  | Cn1cc(-c2cc(-c3cnn(C4(CC#N)CN(CC#N)C4)c3)c3cccnc3c2)cn1 [Example 292, 2,2′-(3-{4-[7-(1-methyl-1H-pyrazol-4-yl)quinolin-5-yl]-1H-pyrazol-1-yl}azetidine-1,3-diyl)diacetonitrile]
 |  |  |  | > 10000 | > 10000 | 2150 | > 10000 | N#CC[C@]1(n2ncc(-c3cc(-c4ncc(OCCO)cn4)cc4ncccc34)n2)C[C@@H](C#N)C1 [Example 406, cis-3-(cyanomethyl)-3-(4-{7-[5-(2-hydroxyethoxy)pyrimidin-2-yl]quinolin-5-yl}-2H-1,2,3-triazol-2-yl)cyclobutanecarbonitrile]
49 | 1930 | 7 | 30 |  |  |  |  | N#CC[C@]1(n2ncc(-c3cc(-c4cc(N)[nH]n4)cc4ncccc34)n2)C[C@@H](C#N)C1 [Example 307, cis-3-{4-[7-(5-amino-1H-pyrazol-3-yl)quinolin-5-yl]-2H-1,2,3-triazol-2-yl}-3-(cyanomethyl)cyclobutanecarbonitrile]

— US11254668B2, “Pyrazolo[1,5-A]pyrazin-4-yl and related derivatives” (Pfizer Inc., priority 2017, dated 2022)
